Assay results published in the NIST ThermoML archive (doi:10.1007/s10765-007-0223-x).

Experiment: xn = mol fraction of the nth substance listed
Conditions: 101 kPa, Liquid; for speed of sound: Single path-length method

COC(C)(C)C [2-methoxy-2-methylpropane] + Cc1ccccc1
Conditions | mass density, 295.65 K [kg/m3] | mass density, 298.15 K [kg/m3] | mass density, 300.65 K [kg/m3] | mass density, 303.15 K [kg/m3] | speed of sound, 298.15 K [m/s] | speed of sound, 300.65 K [m/s] | speed of sound, 303.15 K [m/s] | speed of sound, 305.65 K [m/s]
x1 = 0.053 | – | 855.229 | 852.886 | 850.544 | 1288.9 | 1278.1 | 1267.3 | 1256.5
x1 = 0.116 | – | 847.105 | 844.749 | 842.388 | 1271.8 | 1260.8 | 1250 | 1239.1
x1 = 0.199 | – | 836.426 | 834.049 | 831.668 | 1251.2 | 1240.2 | 1229.3 | 1218.4
x1 = 0.301 | – | 823.289 | 820.886 | 818.477 | 1224.5 | 1213.6 | 1202.6 | 1191.7
x1 = 0.371 | – | 814.439 | 812.02 | 809.592 | 1205.5 | 1194.5 | 1183.6 | 1172.6
x1 = 0.463 | – | 802.616 | 800.168 | 797.712 | 1181.8 | 1170.8 | 1159.8 | 1148.8
x1 = 0.61 | 786.587 | 784.1 | 781.607 | 779.104 | 1142.6 | 1131.6 | 1120.6 | 1109.7
x1 = 0.688 | 776.847 | 774.335 | 771.814 | 769.287 | 1122 | 1111.4 | 1100.2 | 1089
x1 = 0.797 | 763.216 | 760.667 | 758.108 | 755.539 | 1093.8 | 1082.6 | 1071.4 | 1060.2
x1 = 0.902 | 750.116 | 747.528 | 744.931 | 742.321 | 1065.7 | 1054.4 | 1043.1 | 1031.7
x1 = 0.943 | 744.822 | 742.221 | 739.606 | 736.98 | 1053.5 | 1042.1 | 1030.7 | 1019.3
x1 = 1 | 737.036 | 734.406 | 731.766 | 729.112 | 1036.9 | 1025.4 | 1013.9 | 1002.4
